Patent US12280059B2, “Acyl-CoA synthetase 4 (ACSL4) inhibitory compound” (CONSEJO NACIONAL DE INVESTIGACIONES CIENTÍFICAS Y TÉCNICAS …, priority 2019, dated 2025)

Assays:
[1] = test system: MDA-MB-231 cells; experiment: Migration assay (wound healing); assay type: cell-based, human; conditions: for concentration at which differences in wound area were evident: wound healing, 12 h after injury
Experimental: Cellular migration was measured by the wound healing assay. Cells (7×10^5 cells per well) were seeded in six-well plates. Cells were kept in complete (10% FBS) medium. Cell monolayer was wounded with a plastic tip across the monolayer cells. Wound closures were photographed by a phase contrast microscopy (40×) in the time point 4, 8 and 12 h after scraping. The width of the wound was determined with the Image Pro-Plus program.
For the wound healing assay, cells were incubated with either vehicle (control), the compound of the invention (inhibitor A) (50 μM) and Rosiglitazone (200 μM). At the specified time points, the distance between the wound edges was measured using Image-Pro Plus software. Results are shown in FIG. 4A-D. Data represent the mean±SD of three independent experiments.

[2] = test system: PC-3 cells; experiment: Cell proliferation inhibition in prostate cancer cell line, BrdU incorporation assay; assay type: cell-based; conditions: Homo sapiens, 96 h incubation
Experimental: ACSL4 inhibition was also assessed through proliferation inhibition in the Pc-3 cell line. PC-3 human prostate cancer cell line was generously provided by Dr. Susana Nowicky and validated by ATCC Cell Line Authentication Service as 100% matching to ATCC cell line CRL-1435 (PC-3).
The medium was then changed to serum-free medium. After 24 h, the cells were switched to 10% FBS-supplemented D-MEM medium and incubated with i) ACSL4 inhibitor A, ii) ACSL4 inhibitor B or iii) rosiglitazone for 96 h.

[3] = test system: MDA-MB-231 cells; experiment: Cell proliferation inhibition in breast cancer cell line, BrdU incorporation assay; assay type: cell-based; conditions: Homo sapiens, 96 h incubation
Text: In this experiment, ACSL4 inhibition was studied through proliferation inhibition of MDA-MB-231 cells. Human breast cancer cell line MDA-MB-231 was generously provided by Dr. Vasilios Papadoupoulus (Research Institute of the McGill University Health Centre, Montreal, Canada) and obtained from the Lombardi Comprehensive Cancer Center (Georgetown University Medical Center, Washington D.C. USA), validated by ATCC Cell Line Authentication Service as 100% matching to ATCC cell line HTB-26 (MDA-MB-231).
The medium was then changed to serum-free medium.
After 24 h, the cells were switched to 10% FBS-supplemented D-MEM medium and incubated with i) ACSL4 inhibitor A, ii) ACSL4 inhibitor B or iii) rosiglitazone for 96 h.

[4] = test system: MA-10 Leydig cells; experiment: Steroidogenesis assay, progesterone production in cAMP-stimulated MA-10 Leydig cells; assay type: cell-based, mouse
Experimental: (§1) In the present example, ACSL4 inhibitor effects on steroid production were tested by stimulating MA 10 Leydig and Y1 adrenal cells with cAMP (0.5 mM) for 1 hour and assessing progesterone levels. MA-10 mouse Leydig tumor cells were generously provided by Dr. Mario Ascoli (University of Iowa, Iowa City, Iowa) and cultured in Waymouth MB/752 medium supplemented with 15% horse serum and antibiotics at 37° C. and 5% CO2 as previously described. The culture medium was replaced with serum-free Waymouth medium before experiments.

[5] = test system: steroid synthesis; experiment: Steroidogenesis in male mice stimulated with hCG; assay type: in vivo, BALB/c mice
Experimental: Thirty-day-old male BALB/c mice were treated with inhibitor A (10-100 μM) i.p at a dose of 50 ul/mice. After 3 hours the animal received a single s.c injection of human Chorionic Gonadotrophin (300 U/mice). After 3 hours the animal were sacrificed and assessed for testosterone, pregnenolone and progesterone levels FIG. 13 A, corticosterone FIG. 13 B and steroids in Pc-3 cell FIG. 13 C.

[6] = test system: Y1 adrenal cells; experiment: Steroidogenesis assay, progesterone production in cAMP-stimulated Y1 adrenal cells; assay type: cell-based, mouse; conditions: cAMP 0.5 mM, 1 hour
Experimental: as §1
Murine Y1 adrenocortical tumor cells were generously provided by Dr B Schimmer (University of Toronto, Toronto, Canada). Methods for the culture of Y1 mouse adrenal tumor cells (American Type Culture Collection, Rockville, MD, USA) have been published elsewhere (Schimmer 1979). Cells were maintained at 37 C in growth medium (HAM F10) containing fetal bovine (2·5%) and horse (12·5%) sera.

[7] = Solubility; assay type: physicochemical; conditions: compared with compound B
[8] = test system: MDA-MB231 cells; experiment: Tumor growth in chick embryo chorioallantoic membrane (CAM) assay; assay type: in vivo; conditions: 100 μM, in ovo, Kruskal-Wallis p<0.0001
Experimental: In this experiment, the in vivo CAM assay platform of IPATIMUP was used to test the effect of inhibitor A to inhibit tumor growth in vivo. The CAMP is a preclinical in vivo model for drug screening.
Chicken eggs in the early phase of breeding are between in vitro and in vivo systems and provide a vascular test environment not only to study angiogenesis but also to study tumorigenesis. Since the lymphoid system is not fully developed until late stages of incubation, the chick embryo serves as a naturally immunodeficient host capable of sustaining grafted tissues and cells without species-specific restrictions.
As previously described, breast cancer MDA-MB231 cell line was used as a cell model to assess tumor cell growth. The effects of the compound were compared to those of the vehicle (DMEM).
The test compound, at the 10 μM and 100 μM, were inoculated together with 0.5×10^6 MDA-MB231 cells into a total of 53 eggs (distributed in two independent experiments), at embryonic development day (EDD) 10. The effects of the compound A were compared to those of the vehicle (DMEM).
Xenografted cells/tumors were treated in ovo on EDD12 and the experiment ended at EDD 14. At the endpoint, CAMs were fixed (with paraformaldehyde), excised from the embryo and photographed ex ovo.
The pictures were used to determine the number of neo vessels growing radially towards the inoculation site. […]

[9] = molecular target: T1, ACSL4 (Mus musculus, UniProt Q9QUJ7); experiment: 3H-arachidonic acid incorporation into MA-10 Leydig cells (ACSL4 activity); assay type: cell-based; conditions: cAMP stimulated
T1 construct: evaluated in MA-10 Leydig cells, in which ACSL4 activity plays a key role in steroids synthesis; endogenous in cells; host or cells: MA-10 mouse Leydig tumor cells
T1 sequence (Q9QUJ7 whole entry): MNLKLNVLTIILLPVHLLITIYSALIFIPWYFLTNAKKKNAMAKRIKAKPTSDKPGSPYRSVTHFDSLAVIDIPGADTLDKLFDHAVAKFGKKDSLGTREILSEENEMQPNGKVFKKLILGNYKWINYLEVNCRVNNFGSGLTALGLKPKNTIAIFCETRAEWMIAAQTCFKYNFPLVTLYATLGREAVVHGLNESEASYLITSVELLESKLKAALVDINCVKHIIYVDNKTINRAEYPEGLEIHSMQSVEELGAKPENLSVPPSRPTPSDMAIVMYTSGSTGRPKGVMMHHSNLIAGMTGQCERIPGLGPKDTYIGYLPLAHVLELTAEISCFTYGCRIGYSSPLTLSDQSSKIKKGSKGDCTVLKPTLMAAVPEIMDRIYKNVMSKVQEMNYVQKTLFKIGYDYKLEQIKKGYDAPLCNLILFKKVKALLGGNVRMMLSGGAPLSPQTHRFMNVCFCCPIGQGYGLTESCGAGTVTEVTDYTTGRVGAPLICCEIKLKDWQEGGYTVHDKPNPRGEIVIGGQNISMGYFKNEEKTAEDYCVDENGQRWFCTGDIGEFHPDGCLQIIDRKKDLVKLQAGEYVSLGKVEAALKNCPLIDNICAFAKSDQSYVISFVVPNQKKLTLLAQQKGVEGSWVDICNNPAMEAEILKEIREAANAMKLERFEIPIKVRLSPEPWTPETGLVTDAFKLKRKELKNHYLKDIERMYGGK
Experimental: The effects of the ACSL4 inhibitor of the invention were evaluated in MA-10 Leydig cells, in which ACSL4 activity plays a key role in steroids synthesis.
(§2) ACSL4 activity was determined by measuring the transformation of arachidonic acid (AA) into enzyme product arachidonoyl-CoA (AA CoA), through ^3H-AA incorporation expressed as CPM/10^6 cells×10^−3 with results showing significant ACSL4 inhibition and a consequent significant reduction in AA CoA levels.
ACSL4 activity was stimulated with cAMP.

[10] = molecular target: T2, ACSL4 (Homo sapiens, UniProt O60488); experiment: 3H-arachidonic acid incorporation into MDA-MB-231 cells (ACSL4 activity); assay type: cell-based; conditions: serum stimulated
T2 construct: evaluated in MDA-MB-231 cells, in which ACSL4 activity plays a key role in tumor biology; endogenous in cells; host or cells: MDA-MB-231
T2 sequence (O60488 whole entry): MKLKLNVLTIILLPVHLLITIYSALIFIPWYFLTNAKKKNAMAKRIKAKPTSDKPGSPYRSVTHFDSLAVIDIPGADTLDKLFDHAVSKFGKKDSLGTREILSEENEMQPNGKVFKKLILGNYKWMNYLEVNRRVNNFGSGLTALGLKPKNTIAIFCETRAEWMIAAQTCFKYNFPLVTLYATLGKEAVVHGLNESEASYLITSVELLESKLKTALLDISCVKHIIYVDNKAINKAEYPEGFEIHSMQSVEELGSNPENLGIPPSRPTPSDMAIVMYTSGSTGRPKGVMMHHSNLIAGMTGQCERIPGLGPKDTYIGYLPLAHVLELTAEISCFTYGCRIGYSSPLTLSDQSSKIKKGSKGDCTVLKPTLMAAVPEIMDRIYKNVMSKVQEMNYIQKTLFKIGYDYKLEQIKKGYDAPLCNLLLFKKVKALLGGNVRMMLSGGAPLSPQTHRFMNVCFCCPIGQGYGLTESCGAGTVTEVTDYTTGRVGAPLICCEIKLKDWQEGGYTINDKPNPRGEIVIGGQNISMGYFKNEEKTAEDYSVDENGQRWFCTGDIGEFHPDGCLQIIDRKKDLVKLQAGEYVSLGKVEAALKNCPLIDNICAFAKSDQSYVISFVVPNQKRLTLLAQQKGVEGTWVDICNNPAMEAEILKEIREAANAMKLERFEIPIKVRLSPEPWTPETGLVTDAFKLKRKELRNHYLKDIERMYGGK
Experimental: The effects of the ACSL4 inhibitor of the invention were evaluated in MDA-MB-231 cells, in which ACSL4 activity plays a key role in tumor biology.
as §2
ACSL4 activity was stimulated with serum in tumoral cells.

Row | SMILES | concentration at which differences in wound area were evident [1] | IC50 [2] | IC50 [3] | inhibition of progesterone synthesis [4] | release of progesterone ([4]; 10 μM, control 3.26 ng/ml) | inhibition of cell migration (wound healing) ([1]; MDA-MB-231 cells, 50 μM) | minimal concentration significantly inhibiting steroid synthesis ([4]; cAMP 0.5 mM, 1 hour, progesterone) | minimal concentration significantly inhibiting steroid synthesis ([5]; i.p. 50 ul/mice, hCG stimulation (Example 12)) | dose at which there was already response in inhibiting steroidogenesis ([5]; in vivo experiment in mice, FIG. 13 A) | minimal concentration significantly inhibiting steroid synthesis [6] | solubility [7] | tumor growth (tumor area) versus vehicle [8] | concentrations for inhibiting ACSL4 activity (3H-AA incorporation) [9] | concentrations for inhibiting ACSL4 activity (3H-AA incorporation) [10]
1 | CN(CCOc1ccc(CC2SC(=O)NC2=O)cc1)c1ccccn1 (centres unmarked) [Rosiglitazone, reference compound] | 200 µM | 100 µM | 180 µM |  |  |  |  |  |  |  |  |  |  | 
2 | CCC/C=C/C/C=C/C=C/C=N/NN=O [Triacsin C] |  |  |  | failed to inhibit progesterone synthesis | 46.5 ng/mL |  |  |  |  |  |  |  |  | 
3 | CC(=O)NC1=Nc2nc3ccccc3n2C(c2cn(-c3ccccc3)nc2-c2ccc(C)o2)N1 (centres unmarked) [inhibitor A, N-(4-(3-(5-methylfuran-2-yl)-1-phenyl-1H-pyrazol-4-yl)-3,4-dihydrobenzo[4,5]imidazo[1,2-a][1,3,5]triazin-2-yl)acetamide] | 50 µM | 27 µM | 23 µM |  |  | succeeded in inhibiting the migration | 5 µM | 25 µM | 10 µM | 5 µM | higher than the solubility of compound B | Significant statistical differences | lower than those required for rosiglitazone | lower than those required for rosiglitazone
4 | Cc1ccc(-c2nn(-c3ccccc3)cc2C2NC(N)=Nc3nc4ccccc4n32)o1 (centres unmarked) [inhibitor B, 4-(3-(5-methylfuran-2-yl)-1-phenyl-1H-pyrazol-4-yl)-3,4-dihydrobenzo[4,5]imidazo[1,2-a][1,3,5]triazin-2-amine] | 100 µM | 48 µM | 45 µM |  |  |  |  |  |  |  |  |  |  | 
